From ChEMBL document CHEMBL4330088, “Targeting the immunity protein kinases for immuno-oncology” (Eur J Med Chem, 2019)

What was measured:
PI3K p110 beta/p85 alpha = PI3K p110 beta/p85 alpha (Homo sapiens, UniProt P42338); test: Inhibition of human full length recombinant N-terminal His-tagged PI3Kbeta/p85alpha expressed in baculovirus infected Sf21 insect cells
[1] = biological target: Phosphatidylinositol 4,5-bisphosphate 3-kinase catalytic subunit gamma isoform (Homo sapiens, UniProt P48736); test: Inhibition of PI3Kgamma (unknown origin)
[2] = biological target: PI3-kinase p110-alpha/p85-alpha (Homo sapiens, UniProt P42336); test: Inhibition of human N-terminal His-tagged PI3Kalpha/p85alpha expressed in Spodoptera frugiperda using phosphatidylinositol as substrate
Homo sapiens [3] = species on record: Homo sapiens; test: Selectivity ratio of IC50 for PI3Kdelta (unknown origin) to IC50 for human N-terminal His-tagged PI3Kalpha/p85alpha
Homo sapiens [4] = species on record: Homo sapiens; test: Selectivity ratio of IC50 for PI3Kdelta (unknown origin) to IC50 for human full length recombinant N-terminal His-tagged PI3Kbeta/p85alpha
Homo sapiens [5] = species on record: Homo sapiens; test: Selectivity ratio of IC50 for PI3Kdelta (unknown origin) to IC50 for PI3Kgamma (unknown origin)
[6] = Half life of compound in human PBMC; type: ADME, cell-based
[7] = biological target: T1, Interleukin-1 receptor-associated kinase 4 (Homo sapiens, UniProt Q9NWZ3); test: Inhibition of IRAK4 (unknown origin)
T1 sequence (Q9NWZ3 whole entry): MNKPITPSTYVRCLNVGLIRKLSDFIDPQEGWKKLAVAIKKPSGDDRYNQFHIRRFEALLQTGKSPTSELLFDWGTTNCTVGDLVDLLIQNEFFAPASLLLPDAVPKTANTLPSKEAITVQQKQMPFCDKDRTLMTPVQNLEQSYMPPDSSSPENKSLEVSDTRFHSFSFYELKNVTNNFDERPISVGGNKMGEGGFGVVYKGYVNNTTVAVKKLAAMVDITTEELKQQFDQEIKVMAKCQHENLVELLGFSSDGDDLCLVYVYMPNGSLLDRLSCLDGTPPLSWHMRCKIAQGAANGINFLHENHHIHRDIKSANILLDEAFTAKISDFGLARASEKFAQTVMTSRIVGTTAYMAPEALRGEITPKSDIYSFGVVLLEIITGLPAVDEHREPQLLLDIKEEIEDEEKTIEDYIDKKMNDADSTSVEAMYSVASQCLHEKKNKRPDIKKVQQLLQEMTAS

[8] = biological target: Non-receptor tyrosine-protein kinase TYK2 (Homo sapiens, UniProt P29597); test: Inhibition of TYK2 in human Jurkat cells assessed as reduction in IFN-alpha stimulated TYK2 phosphorylation by […] Western blot analysis; type: cell-based
[9] = biological target: Tyrosine-protein kinase JAK1 (Homo sapiens, UniProt P23458); test: Inhibition of JAK1 in human Jurkat cells assessed as reduction in IFN-alpha stimulated JAK1 phosphorylation by […] Western blot analysis; type: cell-based
[10] = biological target: T2, Tyrosine-protein kinase JAK3 (Homo sapiens, UniProt P52333); test: Inhibition of JAK3 in human Jurkat cells assessed as reduction in IFN-alpha stimulated JAK3 phosphorylation by […] Western blot analysis; type: cell-based
T2 sequence (P52333 whole entry): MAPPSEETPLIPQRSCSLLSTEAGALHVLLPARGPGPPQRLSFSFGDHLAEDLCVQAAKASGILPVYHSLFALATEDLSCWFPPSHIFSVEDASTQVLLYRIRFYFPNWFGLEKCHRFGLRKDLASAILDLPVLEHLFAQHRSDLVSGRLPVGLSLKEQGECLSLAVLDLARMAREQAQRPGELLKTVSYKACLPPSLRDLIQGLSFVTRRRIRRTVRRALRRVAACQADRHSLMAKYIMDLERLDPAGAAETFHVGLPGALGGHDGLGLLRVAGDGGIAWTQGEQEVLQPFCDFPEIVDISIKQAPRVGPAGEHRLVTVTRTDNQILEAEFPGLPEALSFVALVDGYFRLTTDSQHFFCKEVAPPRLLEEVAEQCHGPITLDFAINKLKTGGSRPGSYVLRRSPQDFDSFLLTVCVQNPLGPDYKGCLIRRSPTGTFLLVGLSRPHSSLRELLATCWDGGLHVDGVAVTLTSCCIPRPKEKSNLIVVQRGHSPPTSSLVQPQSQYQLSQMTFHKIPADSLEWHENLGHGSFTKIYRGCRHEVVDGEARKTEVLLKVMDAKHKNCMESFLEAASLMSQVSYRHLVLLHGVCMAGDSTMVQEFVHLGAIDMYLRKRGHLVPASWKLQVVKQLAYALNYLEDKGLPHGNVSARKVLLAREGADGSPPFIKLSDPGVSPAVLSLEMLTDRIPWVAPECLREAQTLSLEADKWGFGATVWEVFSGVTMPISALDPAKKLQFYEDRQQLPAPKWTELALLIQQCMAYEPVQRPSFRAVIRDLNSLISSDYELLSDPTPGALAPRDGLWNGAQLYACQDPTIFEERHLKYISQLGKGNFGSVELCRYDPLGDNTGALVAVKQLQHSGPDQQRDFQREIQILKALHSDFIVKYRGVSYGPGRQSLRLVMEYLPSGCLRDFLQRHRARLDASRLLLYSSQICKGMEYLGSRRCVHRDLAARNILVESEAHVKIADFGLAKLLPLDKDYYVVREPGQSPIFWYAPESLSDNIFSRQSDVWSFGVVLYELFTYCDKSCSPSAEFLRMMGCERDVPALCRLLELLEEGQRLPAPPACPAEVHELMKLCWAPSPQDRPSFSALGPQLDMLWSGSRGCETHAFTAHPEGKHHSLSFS

[11] = biological target: MAP kinase-interacting serine/threonine-protein kinase 1/2 (Homo sapiens) (UniProt Q9HBH9+Q9BUB5); test: Inhibition of MNK in human PBMC assessed as reduction in eIF4E phosphorylation at 200 mg after 24 hrs relative to control

Sequence of Phosphatidylinositol 4,5-bisphosphate 3-kinase catalytic subunit gamma isoform (P48736 whole entry, canonical isoform): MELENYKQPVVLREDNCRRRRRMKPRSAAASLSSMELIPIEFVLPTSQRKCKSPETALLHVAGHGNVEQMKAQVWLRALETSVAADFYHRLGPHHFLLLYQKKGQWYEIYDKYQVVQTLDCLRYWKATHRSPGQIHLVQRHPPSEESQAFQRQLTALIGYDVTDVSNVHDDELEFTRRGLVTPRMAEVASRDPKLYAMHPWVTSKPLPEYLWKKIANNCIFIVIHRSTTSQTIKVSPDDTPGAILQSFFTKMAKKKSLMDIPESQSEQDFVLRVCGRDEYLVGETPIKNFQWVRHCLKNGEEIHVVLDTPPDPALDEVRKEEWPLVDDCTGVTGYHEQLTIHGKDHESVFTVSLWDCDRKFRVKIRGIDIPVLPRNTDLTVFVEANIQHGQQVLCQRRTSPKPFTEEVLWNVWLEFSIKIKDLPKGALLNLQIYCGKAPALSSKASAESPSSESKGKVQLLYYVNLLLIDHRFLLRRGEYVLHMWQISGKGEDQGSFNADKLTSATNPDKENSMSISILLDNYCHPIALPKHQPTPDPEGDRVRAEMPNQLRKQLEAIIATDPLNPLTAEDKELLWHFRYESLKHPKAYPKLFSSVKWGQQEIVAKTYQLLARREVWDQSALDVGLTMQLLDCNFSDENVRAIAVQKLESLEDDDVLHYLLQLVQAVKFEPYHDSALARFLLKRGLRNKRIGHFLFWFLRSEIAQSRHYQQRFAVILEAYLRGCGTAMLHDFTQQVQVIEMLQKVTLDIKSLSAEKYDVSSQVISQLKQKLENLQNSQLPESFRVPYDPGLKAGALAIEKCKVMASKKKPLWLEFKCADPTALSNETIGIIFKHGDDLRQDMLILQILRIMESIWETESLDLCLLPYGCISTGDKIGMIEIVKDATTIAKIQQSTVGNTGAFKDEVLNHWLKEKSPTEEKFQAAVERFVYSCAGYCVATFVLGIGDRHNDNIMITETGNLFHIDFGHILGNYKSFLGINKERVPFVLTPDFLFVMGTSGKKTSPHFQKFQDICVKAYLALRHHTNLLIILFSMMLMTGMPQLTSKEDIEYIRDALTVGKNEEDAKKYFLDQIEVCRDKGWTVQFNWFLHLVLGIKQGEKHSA
Sequence of PI3K p110 beta/p85 alpha (P27986 whole entry, canonical isoform): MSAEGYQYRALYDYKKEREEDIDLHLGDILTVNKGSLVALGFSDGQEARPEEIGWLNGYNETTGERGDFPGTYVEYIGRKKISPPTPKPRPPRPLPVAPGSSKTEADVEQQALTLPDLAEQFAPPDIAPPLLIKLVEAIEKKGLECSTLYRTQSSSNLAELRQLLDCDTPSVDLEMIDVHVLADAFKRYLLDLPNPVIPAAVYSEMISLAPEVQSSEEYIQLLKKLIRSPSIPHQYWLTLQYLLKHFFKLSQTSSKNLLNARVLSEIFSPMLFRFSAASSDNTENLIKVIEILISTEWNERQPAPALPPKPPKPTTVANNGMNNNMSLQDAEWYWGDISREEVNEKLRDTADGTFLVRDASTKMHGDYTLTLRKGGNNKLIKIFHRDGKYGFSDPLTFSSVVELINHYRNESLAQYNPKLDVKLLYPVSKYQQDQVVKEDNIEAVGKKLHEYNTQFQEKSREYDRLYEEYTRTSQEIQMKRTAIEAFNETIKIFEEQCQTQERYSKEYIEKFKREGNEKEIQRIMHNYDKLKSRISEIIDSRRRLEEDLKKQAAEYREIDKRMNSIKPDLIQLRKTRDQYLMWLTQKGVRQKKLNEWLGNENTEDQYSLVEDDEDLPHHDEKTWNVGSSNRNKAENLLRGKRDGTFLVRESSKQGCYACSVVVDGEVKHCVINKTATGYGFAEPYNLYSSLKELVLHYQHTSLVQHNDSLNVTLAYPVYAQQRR
Sequence of PI3K p110 beta/p85 alpha (P42338 whole entry, canonical isoform): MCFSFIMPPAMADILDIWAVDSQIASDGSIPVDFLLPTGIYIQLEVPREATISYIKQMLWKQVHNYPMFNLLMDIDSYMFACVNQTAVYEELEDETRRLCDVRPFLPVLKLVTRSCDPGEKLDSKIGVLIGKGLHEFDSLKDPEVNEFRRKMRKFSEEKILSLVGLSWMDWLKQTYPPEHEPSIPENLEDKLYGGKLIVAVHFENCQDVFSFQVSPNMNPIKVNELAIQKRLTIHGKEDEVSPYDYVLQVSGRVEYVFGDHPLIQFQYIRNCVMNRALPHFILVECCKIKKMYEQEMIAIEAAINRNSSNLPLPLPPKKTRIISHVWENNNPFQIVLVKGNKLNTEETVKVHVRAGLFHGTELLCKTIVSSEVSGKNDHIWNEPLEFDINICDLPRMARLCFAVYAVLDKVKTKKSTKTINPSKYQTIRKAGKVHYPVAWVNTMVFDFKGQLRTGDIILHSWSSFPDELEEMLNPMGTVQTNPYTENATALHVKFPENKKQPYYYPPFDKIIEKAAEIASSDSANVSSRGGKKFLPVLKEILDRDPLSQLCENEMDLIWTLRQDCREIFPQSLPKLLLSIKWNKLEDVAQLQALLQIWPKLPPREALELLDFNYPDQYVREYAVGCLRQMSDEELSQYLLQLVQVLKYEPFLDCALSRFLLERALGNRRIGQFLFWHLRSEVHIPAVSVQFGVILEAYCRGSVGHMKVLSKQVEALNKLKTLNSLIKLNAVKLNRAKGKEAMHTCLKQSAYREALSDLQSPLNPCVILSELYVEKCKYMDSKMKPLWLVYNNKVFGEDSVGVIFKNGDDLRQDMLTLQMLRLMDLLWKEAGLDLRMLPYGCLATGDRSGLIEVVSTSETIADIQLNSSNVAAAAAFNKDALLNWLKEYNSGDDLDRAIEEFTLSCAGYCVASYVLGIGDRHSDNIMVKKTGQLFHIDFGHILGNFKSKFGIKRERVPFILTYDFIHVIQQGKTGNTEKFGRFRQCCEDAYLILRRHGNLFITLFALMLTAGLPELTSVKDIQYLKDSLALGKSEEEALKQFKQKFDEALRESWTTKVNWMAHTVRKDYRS
Sequence of PI3-kinase p110-alpha/p85-alpha (P27986 whole entry): as the sequence (P27986 whole entry, canonical isoform) above
Sequence of PI3-kinase p110-alpha/p85-alpha (P42336 whole entry): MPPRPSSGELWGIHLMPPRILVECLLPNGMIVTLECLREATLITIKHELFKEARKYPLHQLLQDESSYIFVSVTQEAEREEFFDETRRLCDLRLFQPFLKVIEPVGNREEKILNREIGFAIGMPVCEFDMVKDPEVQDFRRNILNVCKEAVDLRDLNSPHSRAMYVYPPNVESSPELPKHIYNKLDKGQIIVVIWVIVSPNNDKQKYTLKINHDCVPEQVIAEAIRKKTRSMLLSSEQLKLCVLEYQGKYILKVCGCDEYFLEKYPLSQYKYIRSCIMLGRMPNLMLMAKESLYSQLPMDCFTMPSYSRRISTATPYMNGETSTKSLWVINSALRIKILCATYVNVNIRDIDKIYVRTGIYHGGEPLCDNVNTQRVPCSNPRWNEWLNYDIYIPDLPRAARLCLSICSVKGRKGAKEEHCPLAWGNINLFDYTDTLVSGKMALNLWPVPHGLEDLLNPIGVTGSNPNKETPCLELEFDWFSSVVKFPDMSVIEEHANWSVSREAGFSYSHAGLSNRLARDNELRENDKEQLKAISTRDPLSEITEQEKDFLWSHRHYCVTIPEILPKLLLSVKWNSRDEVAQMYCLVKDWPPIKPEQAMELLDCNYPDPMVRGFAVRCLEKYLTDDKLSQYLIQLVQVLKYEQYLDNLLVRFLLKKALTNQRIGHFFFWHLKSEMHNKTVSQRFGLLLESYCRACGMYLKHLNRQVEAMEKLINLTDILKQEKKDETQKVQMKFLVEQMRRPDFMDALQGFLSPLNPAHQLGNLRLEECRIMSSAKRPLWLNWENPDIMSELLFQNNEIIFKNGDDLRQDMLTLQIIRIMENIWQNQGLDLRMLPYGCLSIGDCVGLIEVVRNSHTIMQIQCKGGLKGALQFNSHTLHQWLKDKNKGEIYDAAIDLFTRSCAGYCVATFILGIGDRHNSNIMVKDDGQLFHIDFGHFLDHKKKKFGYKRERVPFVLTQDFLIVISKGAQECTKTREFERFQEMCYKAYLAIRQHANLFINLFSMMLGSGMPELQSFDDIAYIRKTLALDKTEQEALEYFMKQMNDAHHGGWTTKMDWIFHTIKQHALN

`Cc1csc2nc([C@H](C)Nc3ncnc4[nH]cnc34)c(-c3cccc(F)c3)c(=O)n12` [DEZAPELISIB] gave an IC50 (PI3K p110 beta/p85 alpha) of 3750 nM and an IC50 [1] of 2300 nM.
`Fc1ccc2[nH]ccc2c1-c1nc(N2CCOCC2)c2sc(CN3CCN(CC4CC4)CC3)cc2n1` gave an IC50 [2] of 2300 nM, an IC50 (PI3K p110 beta/p85 alpha) of 1080 nM and an IC50 [1] of over 10000 nM. For the same compound, the Ratio IC50 (Homo sapiens [3]) was over 72, the Ratio IC50 (Homo sapiens [4]) was over 72 and the Ratio IC50 (Homo sapiens [5]) was over 72.
In the case of `N#Cc1ccc(-c2cnc3ccc(-c4ccc(C(=O)N5CCOCC5)cc4)cn23)cc1` [TINODASERTIB], the half-life [6] is reported as 25 h.
In the case of `CC[C@@H]1[C@H](F)C(=O)N[C@@H]1COc1cccc2cc(C(N)=O)c(OC)cc12`, the IC50 [7] is reported as 0.2 nM.
`NC(=O)C[C@H]1CCc2sc3ncnc(O[C@H]4CC[C@H](N5CCOCC5)CC4)c3c21` gave an IC50 [7] of 7.5 nM.
`CC(C)Oc1ccc(-c2nn([C@@H](C)c3oc4ccc(F)cc4c(=O)c3-c3cccc(F)c3)c3ncnc(N)c23)cc1F` [UMBRALISIB] showed an IC50 [2] of over 10000 nM, an IC50 (PI3K p110 beta/p85 alpha) of over 10000 nM and an IC50 [1] of 1400 nM.
`NC(=O)c1nc(-c2c(F)cccc2Cl)oc1Nc1ccc(C(=O)N2CCOCC2)cc1` showed an IC50 [8] of 0.6 nM, an IC50 [9] of 23 nM and an IC50 [10] of 41 nM.
Compound `Cc1cc(Nc2cc(N)ncn2)c(=O)n2c1C(=O)NC21CCCCC1.Cl` [TOMIVOSERTIB HYDROCHLORIDE] has an inhibition [11] of 85% and a half-life [6] of 11 h.
